From publication PMC9686516, “Pharmacokinetic Characteristics of Nebulized Colistimethate Sodium Using Two Different Types of Nebulizers in Critically Ill Patients with Ventilator-Associated Respiratory Infections” (Antibiotics, 2022)
Like-named read-outs stand apart in the source and are kept apart here. Where a SMILES comes first, the peptide text is derived from it. Bridges are numbered along the chain shown (N, C = ends). [ ]: non-standard residue; d: D form. The star is where a group is joined. X1 = CC[C@H](C)CCCCC(=O)*; Dab = NCC[C@H](N)C(=O)O

Columns and labels:
[1] = piglets, cited from earlier work
Procedure: Nevertheless, in a piglet model of ventilated P. aeruginosa inoculation pneumonia, Lu et al. observed a serum maximum colistin concentration of 1.6 ± 1.4 mg/L after VMN aerosolization of 0.1 mIU/kg of CMS [28]. […] Post-nebulization colistin tissue levels have never been measured in humans; if the results abov ...

[2] = Colistin pharmacokinetics in epithelial lining fluid (ELF) after nebulized CMS in ventilated VARI patients; format: in vivo, human; conditions: 2 mIU CMS inhaled; for AUC0–8 h: ELF (mini-BAL, urea-corrected), no systemic CMS, HPLC-fluorescence; for AUC0–8 h / Volume of distribution/ fraction of dose absorbed / Clearance/fraction of dose absorbed / Cmax: NCA; for AUC0–8 h / Volume of distribution/ fraction of dose absorbed / Clearance/fraction of dose absorbed / Cmax / AUC0–24 / Cmin / Tmax / level at 1 h / level at 4 h / level at 6 h / level at 8 h: median (IQR); for Ccolistin over 2 mg/L, frequency of patients / Ccolistin over 4 mg/L, frequency of patients / Volume of distribution/ fraction of dose absorbed / Clearance/fraction of dose absorbed / Cmax / AUC0–24 / Cmin / Tmax / level at 1 h / level at 4 h / level at 6 h / level at 8 h: ELF; for Volume of distribution/ fraction of dose absorbed: dose/(λ × AUCinf); for Clearance/fraction of dose absorbed: dose/AUCinf; for AUC0–24: calculated as AUCinf × 3 (thrice daily), total colistin; for level at 1 h / level at 4 h / level at 6 h / level at 8 h / Kp: human, inhaled or intranasal, 2 mIU; for level at 1 h / level at 4 h / level at 6 h / level at 8 h: epithelial lining fluid (ELF), read-out: Ccolistin,ELF; for level at 1 h: 1 h post-nebulization; for level at 4 h: 4 h post-nebulization; for level at 6 h: 6 h post-nebulization; for level at 8 h: 8 h post-nebulization; for Kp: epithelial lining fluid (ELF)/plasma, ELF/plasma mean concentration ratio, mean (SD), SD
Excerpt: The study population consisted of 24 critically ill adult patients, admitted to the intensive care unit of the First Department of Pulmonology of the National and Kapodistrian University of Athens between June 2014 and November 2017. All patients were intubated and mechanically ventilated, and received inhaled CMS as part of their treatment for VAP or VAT caused by Gram-negative pathogens. Subjects were studied around the first dose of nebulized treatment, which always preceded intravenous treatment, to avoid confounding by colistin (or CMS) reaching the ELF via the systemic circulation. We excluded patients that received a dose different to the institution’s standard of 2 million international units (mIU) (~160 mg) of CMS and patients who were planned to receive intravenous colistin within 8 h of nebulization initiation.
A dose of 2 mIU of CMS (Colistin®, Norma Hellas, Athens, Greece), corresponding to approximately 160 mg CMS or 68 mg colistin-base activity, was nebulized over a 10–30 min period via either VMN (Aeroneb Solo with Aeroneb Pro controller, Aerogen, Galway, Ireland) or generic JN. This was not a randomized trial, and the nebulizer selection was exclusively a matter of availability of VMN consumables in the ICU at the time. The intended dose was dissolved in 4 mL of normal saline 0.9%. The nebulizer was placed at the inspiratory limb of the ventilator circuit, at 15 cm from the Y-piece, and the heat and moisture exchanger was removed. During nebulization, the patients were sedated and ventilated using assist volume controlled mode, with tidal volume set at 8 mL/kg of ideal body weight, a constant squared-wave inspiratory flow, a positive end expiratory pressure (PEEP) of less than or equal to 10 cm H2O, an inspiratory to expiratory time ratio equal to 1, an inspiratory pause of 10%, and a respiratory rate set at 15/min [31].
[…] The catheter was inserted through the endotracheal tube. The lavage was performed with instillation of 2 syringes of 20 mL sterile normal saline at room temperature through the catheter. The aspirate from the first syringe was considered representative of bronchial washing and was, therefore, discarded. The aspirate from the second syringe was collected and centrifuged in frigid centrifuge (3500× g for 10 min at 4 °C) immediately (<2 min) to avoid falsely elevated levels of urea in BAL [34] and CMS hydrolysis to formed colistin. The supernatant liquid was stored in plastic micro test tubes (Safe-lock; Eppendorf AG; Hamburg, Germany) and frozen at –80 °C, until analysis.
Colistin concentrations in plasma (Ccolistin,plasma) and epithelial lining fluid (Ccolistin,ELF) were measured through high performance liquid chromatography (HPLC)-fluorescence analysis.
The samples were rapidly centrifuged, and plasma and BAL supernatant were separated and kept frozen (−80 °C) before analysis, as previously described. An HPLC-RF assay was used for colistin concentration measurements in plasma and BAL fluid samples, based on the method of Li et al., as modified by Markou et al. and Ratjen et al.. Briefly, netilmicin was used as the internal standard and the method consisted of a protein precipitation step with trifluoracetic acid (TFA), followed by colistin derivatization with 9-fluorenylmethyl chloroformate on a solid phase extraction C18 cartridge. The eluted fluid was dried under vacuum and the solid residue was reconstituted in mobile phase for subsequent reversed-phase HPLC with fluorescence detection (excitation: 260 nm; emission: 316 nm). The analytical column was a Phenomenex Luna C18, 3 μm, 50 mm × 3 mm with 100 Å particle size, while the mobile phase consisted of ACN/THF/H2O (80/7.7/12.3%) with a flow rate of 0.5 mL/min. The injection volume was 20 μL. The method was linear at a concentration range of 0.10–4.8 mg/L (R^2 = 0.999). […]

[3] = cited from earlier work
Procedure: However, the ELF exposure was similar, despite the higher dose, probably due to a higher clearance from the lung compartment in our study, as evidenced by the ... || Contrarily, our results were only marginally compatible with the results of Boisson et al. and Gkoufa et al.. In the former study, the range of colistin concentration in the ELF following a 2 mIU inhalation spanned from 9.53 to 1137 mg/L [14], while it was between 0.8 mg/L and 57.9 mg/L in the present study. In the latter study, the exact values were not reported, however in the figured data it was shown that after an inhalation of 3 to 5 mIU of CMS, formed colistin concentrations were in the range of 10^2 to 10^3 mg/L [16]. Again, it is not known whether these differences we ...

CC[C@H](C)CCCCC(=O)N[C@@H](CCN)C(=O)N[C@H](C(=O)N[C@@H](CCN)C(=O)N[C@H]1CCNC(=O)[C@H]([C@@H](C)O)NC(=O)[C@H](CCN)NC(=O)[C@H](CCN)NC(=O)[C@H](CC(C)C)NC(=O)[C@@H](CC(C)C)NC(=O)[C@H](CCN)NC1=O)[C@@H](C)O [colistin] (X1-[Dab]T[Dab][Dab][Dab][dL]L[Dab][Dab]T; lactam 4-C)
median peak lung tissue concentration ([1]; 1 h after the third inhaled dose, upon sacrifice): 2.8 µg/g
serum maximum colistin concentration ([1]; VMN aerosolization of 0.1 mIU/kg of CMS, ref 28 (Lu et al.)): 1.6 ± 1.4 mg/L
AUC0–8 h ([2]; JN, n = 6): 30.5 (26.0–36.8) mg/L∙h
AUC0–8 h ([2]; VMN, n = 18): 28.7 (15.1–68.1) mg/L∙h
Ccolistin over 2 mg/L, frequency of patients ([2]; 60 min, JN, n = 6): 16.7%
Ccolistin over 4 mg/L, frequency of patients ([2]; 60 min, JN, n = 6): 16.7%
Ccolistin over 2 mg/L, frequency of patients ([2]; 240 min, JN, n = 6): 100%
Ccolistin over 4 mg/L, frequency of patients ([2]; 240 min, JN, n = 6): 83.3%
Ccolistin over 2 mg/L, frequency of patients ([2]; 240 min, VMN, n = 18): 50%
Ccolistin over 4 mg/L, frequency of patients ([2]; 240 min, VMN, n = 18): 27.8%
Ccolistin over 2 mg/L, frequency of patients ([2]; 360 min, JN, n = 6): 83.3%
Ccolistin over 4 mg/L, frequency of patients ([2]; 360 min, JN, n = 6): 33.3%
Ccolistin over 2 mg/L, frequency of patients ([2]; 360 min, VMN, n = 18): 88.9%
Ccolistin over 4 mg/L, frequency of patients ([2]; 360 min, VMN, n = 18): 83.3%
Ccolistin over 2 mg/L, frequency of patients ([2]; 480 min, JN, n = 6): 0%
Ccolistin over 4 mg/L, frequency of patients ([2]; 480 min, JN, n = 6): 0%
Ccolistin over 2 mg/L, frequency of patients ([2]; 480 min, VMN, n = 18): 41.2%
Ccolistin over 4 mg/L, frequency of patients ([2]; 480 min, VMN, n = 18): 17.6%
Volume of distribution/ fraction of dose absorbed ([2]; JN, n = 6): 4.5 (3.5–5.1) L
Clearance/fraction of dose absorbed ([2]; JN, n = 6): 1.8 (1.5–2.1) L/h
Cmax ([2]; JN, n = 6): 7.4 (6.2–10.3) mg/L
AUC0–24 ([2]; JN, n = 6): 91.5 (78.1–110.3) mg/L∙h
Cmin ([2]; JN, n = 6): 1.1 (0.9–1.2) mg/L
Tmax ([2]; JN, n = 6): 4.3 (3.5–4.3) h
Volume of distribution/ fraction of dose absorbed ([2]; VMN, n = 18): 1.7 (0.8–5.2) L
Clearance/fraction of dose absorbed ([2]; VMN, n = 18): 1.4 (0.8–3.6) L/h
Cmax ([2]; VMN, n = 18): 10.4 (4.7–22.6) mg/L
AUC0–24 ([2]; VMN, n = 18): 86.2 (46.0–185.9) mg/L∙h
Cmin ([2]; VMN, n = 18): 0.4 (0.1–0.8) mg/L
Tmax ([2]; VMN, n = 18): 6.5 (6.3–6.6) h
level at 1 h ([2]; JN, n = 6): 1200 ng/mL
level at 1 h ([2]; VMN, n = 18): 700 ng/mL
level at 4 h ([2]; JN, n = 6): 6420 ng/mL
level at 4 h ([2]; VMN, n = 18): 2100 ng/mL
level at 6 h ([2]; JN, n = 6): 3300 ng/mL
level at 6 h ([2]; VMN, n = 18): 8600 ng/mL
level at 8 h ([2]; JN, n = 6): 1300 ng/mL
level at 8 h ([2]; VMN, n = 18): 1420 ng/mL
Kp ([2]; JN, n = 6): 4.8
Kp ([2]; VMN, n = 18): 5.5
median plasma Cmax ([3]; 1 mIU of CMS via VMN, ref 13 (Athanassa et al.)): 1600 ng/mL
plasma concentrations ([3]; after inhaled CMS, generally): below 1 mg/L
